Data set [1] addresses T1, rat recombinant myc-B2R (Rattus norvegicus, UniProt P25023).
T1 construct: expressed in transfected cells
T1 sequence (P25023 1-396): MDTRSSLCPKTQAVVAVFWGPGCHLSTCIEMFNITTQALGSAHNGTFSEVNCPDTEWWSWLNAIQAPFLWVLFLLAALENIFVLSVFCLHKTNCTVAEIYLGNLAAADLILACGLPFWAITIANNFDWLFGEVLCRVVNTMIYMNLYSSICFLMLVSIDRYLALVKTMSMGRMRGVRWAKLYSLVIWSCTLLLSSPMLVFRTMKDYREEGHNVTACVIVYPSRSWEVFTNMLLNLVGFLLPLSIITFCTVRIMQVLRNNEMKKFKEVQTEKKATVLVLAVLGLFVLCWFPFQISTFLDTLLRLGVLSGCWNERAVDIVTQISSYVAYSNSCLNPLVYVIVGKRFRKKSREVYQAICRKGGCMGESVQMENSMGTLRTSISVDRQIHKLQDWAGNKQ
The data set can be described thus: [3H]BK binding competition, rat myc-B2R. Conditions: 3 nM [3H]BK, 0 °C, intact HEK 293a cells, peptidase inhibitors (captopril, PMSF); [95% C.L.]. As for the experimental part: (§1) The construction of myc-tagged B2R expression vectors containing the human and rat receptor sequence has been recently reported, as well as the derivation of HEK 293a cell lines that stably express each one of these constructions ([Charest-Morin et al., 2015]). The HEK 293a cell line was originally obtained from Sigma-Aldrich. Affinity of N-terminally extended kinins for the B2R was evaluated using a radioligand binding competition assay performed at 0 °C in the presence of peptidase inhibitors that included captopril and PMSF ([Houle et al., 2000]).
(§2) Results are presented as means ± s.e.m.

Data set [2] concerns the target T2, human isolated umbilical vein (BK B2R; histamine H1R) (Homo sapiens, UniProt P30411).
T2 sequence (P30411 1-391): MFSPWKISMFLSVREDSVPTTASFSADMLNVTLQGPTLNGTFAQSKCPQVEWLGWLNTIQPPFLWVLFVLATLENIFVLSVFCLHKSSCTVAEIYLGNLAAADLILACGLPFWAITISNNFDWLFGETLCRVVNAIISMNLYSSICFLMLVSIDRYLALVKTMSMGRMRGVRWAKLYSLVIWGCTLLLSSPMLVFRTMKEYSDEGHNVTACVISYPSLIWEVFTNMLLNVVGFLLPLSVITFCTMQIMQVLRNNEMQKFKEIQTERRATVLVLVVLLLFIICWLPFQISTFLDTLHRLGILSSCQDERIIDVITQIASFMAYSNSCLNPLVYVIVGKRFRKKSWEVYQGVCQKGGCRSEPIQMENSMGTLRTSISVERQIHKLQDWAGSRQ
Conditions: for EC50: read-out: Human umbilical vein EC50, contraction, cumulative, [95% C.L.]. An excerpt: The institutional research ethics board (CHU de Québec) approved the anonymous use of human umbilical cord segments obtained after elective cesarean section deliveries (file number: 2012-323). Informed written consent was obtained from mothers.
Results are presented as means ± s.e.m. Radioligand binding data were fitted by nonlinear regression to a one-site competition equation using a least-square method (Prism 5.0; GraphPad Software Inc., San Diego, CA, USA) and IC50 values calculated from this procedure. The same computer program was used to draw concentration-effect curves (least square fitting of sigmoidal dose–response equation with variable slope) and to derive contractile EC50 values. Data describing baseline values of heart rate and mean arterial blood pressure and hypotensive responses to peptides in anesthetized rats were assessed by using one-way analysis of variance (ANOVA) followed by the Dunnett’s test (repeated comparison with a common control). The effects of drugs on the hypotensive responses to each dose of MK were assessed by using ANOVA followed by the Dunnett’s test.

The target in data set [3] is T3, recombinant human myc-B2R (Homo sapiens, UniProt P30411).
T3 construct: expressed in transfected cells
T3 sequence (P30411 1-391): T2 sequence (P30411 1-391)
In words: [3H]BK binding competition, human myc-B2R. Conditions: for IC50: 3 nM [3H]BK, 0 °C, intact HEK 293a cells, peptidase inhibitors (captopril, PMSF), [95% C.L.]. As for the experimental part:
as §1, §2

A short description of data set [4]: LC-MS of MK incubated with human umbilical vein ring. Format: in vitro ADME. Conditions: MK (100 fmol analysed), 37 °C, 5 or 15 min. As for the experimental part: Synthetic MK (1 µM) was submitted to digestion in 2 ml of sterile-filtered Krebs solution in the presence of a freshly prepared ring of human umbilical vein (wet weight 25–37 mg). The tubes containing these materials were incubated at 37 °C for 5 or 15 min; the tissues were then removed and five volumes of cold ethanol (10 ml) were added to each tube. The tubes were incubated for 1 h on ice, centrifuged at 10,000 g to remove precipitated proteins and the kinin-containing supernatants were collected (procedure previously validated, [Raymond et al., 1995]). The supernatants were then completely evaporated to dryness in a Speedvac system and reconstituted in a small volume of water. Peptides were desalted on stage tip (C18), vacuum dried and then resuspended into 0.1% formic acid. One hundred fmol of each sample (starting MK quantity) was analyzed by mass spectrometry.
Mass spectrometry: peptide samples were separated by online reversed-phase (RP) nanoscale capillary liquid chromatography (nanoLC) and analyzed by electrospray mass spectrometry (ES MS/MS). The experiments were performed with a Ekspert NanoLC425 (Eksigent) coupled to a 5600+ mass spectrometer (AB Sciex, Framingham, MA, USA) equipped with a nanoelectrospray ion source. Peptide separation took place on a picofrit column (Reprosil 3u, 120A C18, 15 cm × 0.075 mm internal diameter). Peptides were eluted with a linear gradient from 5–35% solvent B (acetonitrile, 0.1% formic acid) in 35 min, at 300 nL/min. Mass spectra were acquired using a data dependent acquisition mode using Analyst software version 1.7. […] Dynamic exclusion was set for a period of 3 s and a tolerance of 100 ppm
Database searching: MGF peak list files were created using Protein Pilot version 5.0 software (Sciex) utilizing the Paragon and Progroup algorithms. MGF sample files were then analyzed using Mascot (Matrix Science, London, UK; version 2.5.1).
Mascot was set up to search the MK sequence assuming that the digestion enzyme was non-specific. Mascot was searched with a fragment ion mass tolerance of 0.100 Da and a parent ion tolerance of 0.100 Da. Deamidation of asparagine and glutamine and oxidation of methionine were specified in Mascot as variable modifications. Scaffold (version Scaffold_4.7.1; Proteome Software Inc., Portland, OR, USA) was used to validate MS/MS based peptide and protein identifications.
Data processing: Peak View 1.2.0.1 (Sciex) was used to extract the specific precursor masses and calculate the area under the curve. Extracted ion chromatoram (XIC) were generated from the TOF MS using a peak width of 0.05.

Data set [5] is described as follows: Plasma level after injection. Set-up: species or system rat. As to conditions: after injection at the highest tested dose in vivo.
Data set [6] deals with human BK B1 receptor. As to conditions: ref Charest-Morin & Marceau, 2016; cited from earlier work. From the text: MRGPRX2 has been recently described as a promiscuous receptor for cationic polymers and drugs that produce direct mast cell degranulation ([McNeil et al., 2015]). […] The contractile effect of MK on the human umbilical vein and ...
In data set [7] the test system is rat mast cells. As to conditions: read-out: histamine release EC50; ref Devillier et al., 1985; cited from earlier work. From the text: MK, encoded by two genes as five identical and cleavable amino acid sequences ([Chen et al., 2003]), is presumably a dissuasive toxin expressed in the skin of the toad Bombina maxima. Several such BK-related peptides of amphibian origin are believed to have co-evolved with the kinin receptors of the predatory species such as birds and snakes ([Xi et al., 2015]).

The target in data set [8] is T2, human isolated umbilical vein (BK B2R; histamine H1R). As to conditions: ref Gera et al., 2011; Charest-Morin et al., 2014; cited from earlier work. From the text: The isolated umbilical vein has a low intrinsic sensitivity to endothelium-dependent vasodilation owing to its >20 layers of B2R-expressing smooth muscle cells ([Koumbadinga et al., 2010]; [Jean et al., 2016b]).

Residues, ends and D or L forms follow the SMILES beside them.

In the case of `NC(N)=NCCC[C@H](NC(=O)[C@H](Cc1ccccc1)NC(=O)[C@@H]1CCCN1C(=O)[C@H](CO)NC(=O)[C@H](Cc1ccccc1)NC(=O)CNC(=O)[C@@H]1CCCN1C(=O)[C@@H]1CCCN1C(=O)[C@@H](N)CCCN=C(N)N)C(=O)O` [BK, bradykinin] (H-RPPGFSPFR-OH), in data set [1], the IC50 worked out at 0.0192 µM.

Consider `CC[C@H](C)[C@H](NC(=O)[C@H](CCCCN)NC(=O)[C@@H]1CCCN1C(=O)[C@H](CC(C)C)NC(=O)[C@@H](N)CC(=O)O)C(=O)N[C@@H](CC(N)=O)C(=O)N[C@@H](CCCNC(=N)N)C(=O)N[C@@H](CCCCN)C(=O)NCC(=O)N1CCC[C@H]1C(=O)N[C@@H](CCCNC(=N)N)C(=O)N1CCC[C@H]1C(=O)N1CCC[C@H]1C(=O)NCC(=O)N[C@@H](Cc1ccccc1)C(=O)N[C@@H](CO)C(=O)N1CCC[C@H]1C(=O)N[C@@H](Cc1ccccc1)C(=O)N[C@@H](CCCNC(=N)N)C(=O)O` [MK, maximakinin] (H-DLPKINRKGPRPPGFSPFR-OH), for which the EC50 in data set [2] turned out to be 0.145 µM. In addition, the IC50 in data set [3] was determined as 7.56 µM; in data set [1], 0.12 µM. Moreover, the “consumption of MK” value in data set [4] is listed as “consumed during the reaction”. For the same molecule, the “plasma concentration upper limit” value in data set [5] is at most 100 nM.

In the case of `CC[C@H](C)[C@H](NC(=O)[C@H](CCCCN)NC(=O)[C@@H]1CCCN1C(=O)[C@H](CC(C)C)NC(=O)[C@@H](N)CC(=O)O)C(=O)N[C@@H](CC(N)=O)C(=O)N[C@@H](CCCNC(=N)N)C(=O)N[C@@H](CCCCN)C(=O)NCC(=O)N1CCC[C@H]1C(=O)N[C@@H](CCCNC(=N)N)C(=O)N1CCC[C@H]1C(=O)N1CCC[C@H]1C(=O)NCC(=O)N[C@@H](Cc1ccccc1)C(=O)N[C@@H](CO)C(=O)N1CCC[C@H]1C(=O)N[C@@H](Cc1ccccc1)C(=O)O` [MK-des-Arg] (H-DLPKINRKGPRPPGFSPF-OH; N-terminus and C-terminus assumed), in data set [2], the “contractile effect” value is listed as “negligible effects” and the EC50 was over 10 µM. In addition, in data set [3], the IC50 is over 10 µM. Besides, the “displacement of [3H]BK binding / affinity” value in data set [3] (human myc-B2R) was “did not significantly displace [^3H]BK binding”. For the same molecule, in data set [6], the “B1R affinity” value is “very low affinity”.

As for Lys-BK, in data set [7], the EC50 is 7.7 µM.

Consider “Met-Lys-BK-Ser-Ser [BK prodrug prolonged at the C-terminus]”, for which the “apparent potency in presence of specific peptidase inhibitors” value in data set [8] is reported as “decreased apparent potency”.

Values taken from PMC5248581 (PeerJ, 2017).
